The values below come from patent US4016259A, “Contraceptive polypeptides” (Research Corporation, priority 1975, dated 1977).

One assay concerns Hamster. Put plainly: Female Anti-Fertility test (Table I), implants counted at autopsy. It counts as in vivo. To be noted: subc., saline, days (-4)-(-1), autopsy day 10. The procedure:
In one study carried out with hamsters Thr-Pro-Arg-Lys as the diacetate was administered subcutaneously in isotonic solution at dosage levels of 2, […], once daily starting on the day of postovulatory discharge (-4) prior to mating. Treatment was continued until the fourth day after ovulation. The animals were mated and then sacrificed on the tenth day. The uterus was opened, and the number of implants counted.
TEST Female Anti-Fertility
ROUTE OF ADMINISTRATION Subc.
Once daily for four days, starting on the day
of postovulatory discharge, prior to mating.

The next assay deals with hamsters. As to the kind of experiment: Control of pregnancy in hamsters, compound in phosphate buffer pH 7.1 subcutaneously or orally. The format is in vivo, hamster.

Peptide text beside a SMILES is read from it.

Consider `C[C@@H](O)[C@H](N)C(=O)N1CCC[C@H]1C(=O)N[C@@H](CCCNC(=N)N)C(=O)N[C@@H](CCCCN)C(=O)O` [Thr-Pro-Arg-Lys, threonyl-prolyl-arginyl-lysine] (H-TPRK-OH), for which the “Average No. of Implants” value stood at 0.5 with Hamster (daily dose 2.0 μg/100 mg), 4.6 in the assay with Hamster (daily dose 10.0 μg/100 mg) and 5.9 in the assay with Hamster (daily dose 100.0 μg/100 mg). Besides, the “Total No. of Normal Fetuses” value in the assay with Hamster (daily dose 2.0 μg/100 mg) is listed as 5; in the assay with Hamster (daily dose 10.0 μg/100 mg) it was 46; in the assay on Hamster (daily dose 100.0 μg/100 mg), 53. In addition, the “Total No. of Resorbing Fetuses” value in the assay with Hamster (daily dose 2.0 μg/100 mg) came out at 0; with Hamster (daily dose 10.0 μg/100 mg) it was 3; in the assay with Hamster (daily dose 100.0 μg/100 mg) it was 1. Further, the “No. of Animals with Implantations” value is reported as 1 with Hamster (daily dose 2.0 μg/100 mg, 10/10 sperm +); 4 with Hamster (daily dose 10.0 μg/100 mg, 10/10 sperm +); 4 in the assay with Hamster (daily dose 100.0 μg/100 mg, 9/10 sperm +). Also, the number of pregnancies entry with hamsters (administered orally at 35 to 50 μg/100 gm/day) is reported as “reduced to zero”. Further, the “number of implantations per animal” value in the assay on hamsters (subcutaneous, phosphate buffer pH 7.1, at 0.7 mcg/gm/day) is recorded as “less than one”. Moreover, the “effective dose (number of implantations per animal reduced to less than one)” value in the assay with hamsters (subcutaneous, phosphate buffer pH 7.1, calculated as free base) is 0.7 mcg/gm/day.
